From US11091511B2, “Panaxdiol-type ginsenoside derivative, preparation method therefor and use thereof” (ARMY MEDICAL UNIVERSITY, priority 2016, dated 2021) come the findings set out here.

Series [1] concerns RAW264.7 cells. As to the kind of experiment: RAW264.7 cell survival rate by CCK8 method. Type of series: cell-based, mouse. The following applies: compound 10 prnol/L, 0.1% DMSO, CCK8, x ± s, n = 3, normal saline control = 1. Put shortly:
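Mouse macrophage RAW264.7 cells exposed to compounds at 10 […] in medium containing 0.1% DMSO final, alongside a 0.1% DMSO saline control. Survival measured by CCK8, given as x±s, with groups compared by one-way ANOVA (p<0.05).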
(In general: Tetrazolium assays rely on reduction of a dye to a coloured formazan, in cell work by metabolically active cells.)

The test system of series [2] is TNF-α. As to the kind of experiment: Local TNF-α level in the arteries of apoE-/- mice (Millipore liquid phase chip). Type of series: in vivo, mouse. The following applies: high-fat diet, intragastric 15 weeks, compounds 30 mg/(kg·d), simvastatin 10 mg/(kg·d), x ± s, n = 5, saline control 25.58 ± 6.44. An outline of the steps: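 Male apoE−/− mice on a high-fat diet (0.15% cholesterol, 21% lard) for 25 weeks received compound at 30 mg/(kg·d) intragastrically from week 10 for 15 weeks (n=5). Arterial TNF-α was then measured with a magnetic bead cytokine panel. Groups were compared by one-way ANOVA.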

For series [3], the system named is apoE−/− mice. As to the kind of experiment: Atherosclerotic plaque area to total aortic area in apoE-/- mice on high-fat diet (Sudan IV staining). Type of series: in vivo, mouse. The following applies: intragastric 15 weeks, compounds 30 mg/(kg·d), simvastatin 10 mg/(kg·d), x ± s, n = 5, saline control 14.67 ± 3.58. Put shortly:
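Male apoE−/− mice, 10 weeks old, ate a high-fat diet (0.15% cholesterol, 21% lard) for 25 weeks and received compounds intragastrically at 30 mg/(kg·d) for 15 weeks from week 10 (n=5). Aortas from root to abdominal bifurcation were formalin-fixed and Sudan IV-stained. Lesion area was expressed as percent of total aortic area.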

Series [4] relates to RAW264.7 cell-derived foam cells. As to the kind of experiment: Formation of RAW264.7 cell-derived foam cells (ox-LDL, oil red O, absorbance 490 nm). Type of series: cell-based, mouse. The following applies: 48 hours, model group = 100%, x ± s, n = 3. Put shortly:
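RAW264.7 foam cells, induced with 60 mg/L ox-LDL for 48 h, were treated 48 h with compound at 10 or 30 μmol/L in saline, in triplicate wells. Lipid was stained with oil red O, extracted in isopropanol and read at 490 nm. Values are cell-number-corrected lipid content as % of the model group.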

Series [5] concerns apoE−/− mice. As to the kind of experiment: Blood lipids (LDL-C, HDL-C) in apoE-/- mice on high-fat diet. The following applies: apoE-/- mice serum, intragastric 15 weeks, compounds 30 mg/(kg·d), simvastatin 10 mg/(kg·d), x ± s; for HDL-C: n = 5, saline control 3.74 ± 0.62; for LDL-C: n = 5, saline control 7.33 ± 1.03. Type of series: in vivo, mouse. An outline of the steps:
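Male apoE−/− mice (ten weeks old) on high-fat diet (0.15% cholesterol, 21% lard) for 25 weeks; from week 10, compounds given intragastrically at 30 mg/(kg·d) for 15 weeks (n=5). Serum TC, LDL-C and HDL-C measured on an automatic biochemical analyzer; one-way ANOVA, p<0.05.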

Marks after values point to notes of the source that are not given here.

For `COC(=O)[C@H](NCCC[C@](C)(OC(C)=O)C1CC[C@]2(C)[C@@H]1C(OC(C)=O)CC1[C@@]3(C)CC[C@H](OC(C)=O)C(C)(C)C3CC[C@]12C)[C@@H](C)O` (stereo partly shown) [Compound 21], the “Cell Survival Rate” value in series [1] is listed as 0.94 ± 0.17. In series [2], the “TNF-α level (ng/g)” value is 10.76 ± 3.54 ^a ng/g. Besides, the “Plaque area/total aorta area (%)” value in series [3] is 8.28 ± 3.29 ^a %. Further, in series [4] (dose 10 μmol/L), the “Foam cell formation (%)” value is on record as 65 ± 15 ^a %. In series [4] (dose 30 μmol/L), the “Foam cell formation (%)” value is given as 47 ± 13 ^a %. Further, in series [5], the HDL-C is recorded as 5.82 ± 0.95 ^a mmol/L and the LDL-C is given as 4.31 ± 1.84 ^a mmol/L.
`COC(=O)[C@H](CO)NCCC[C@](C)(OC(C)=O)C1CC[C@]2(C)[C@@H]1C(OC(C)=O)CC1[C@@]3(C)CC[C@H](OC(C)=O)C(C)(C)C3CC[C@]12C` (stereo partly shown) [Compound 22]: the “Cell Survival Rate” value in series [1] was 1.03 ± 0.15. Also, the “TNF-α level (ng/g)” value in series [2] is reported as 18.14 ± 6.82 ^a ng/g. Besides, in series [3], the “Plaque area/total aorta area (%)” value is recorded as 10.32 ± 2.74 ^a %. For the same compound, the “Foam cell formation (%)” value in series [4] (dose 10 μmol/L) was 76 ± 10 ^a %. Besides, the “Foam cell formation (%)” value in series [4] (dose 30 μmol/L) is reported as 65 ± 14 ^a %. Further, in series [5], the HDL-C is recorded as 4.29 ± 0.84 ^a mmol/L and the LDL-C was 6.31 ± 1.17 mmol/L.
On to `COC(=O)CCC(NCCC[C@](C)(OC(C)=O)C1CC[C@]2(C)[C@@H]1C(OC(C)=O)CC1[C@@]3(C)CC[C@H](OC(C)=O)C(C)(C)C3CC[C@]12C)C(=O)OC` (stereo partly shown) [Compound 23], for which the “Cell Survival Rate” value in series [1] stood at 1.01 ± 0.09. The “TNF-α level (ng/g)” value in series [2] is 12.61 ± 374^a ng/g. Further, the “Plaque area/total aorta area (%)” value in series [3] is recorded as 8.64 ± 2.46 ^a %. In addition, the “Foam cell formation (%)” value in series [4] (dose 10 μmol/L) is 68 ± 18 ^a %. Moreover, the “Foam cell formation (%)” value in series [4] (dose 30 μmol/L) is recorded as 47 ± 19 ^a %. In series [5], the HDL-C is on record as 5.39 ± 0.61 ^a mmol/L and the LDL-C is on record as 4.28 ± 1.46 ^a mmol/L.
With `COC(=O)CNCCC[C@](C)(OC(C)=O)C1CC[C@]2(C)[C@@H]1C(OC(C)=O)CC1[C@@]3(C)CC[C@H](OC(C)=O)C(C)(C)C3CC[C@]12C` (stereo partly shown) [Compound 24], the “Cell Survival Rate” value in series [1] was 0.89 ± 0.14. Further, the “TNF-α level (ng/g)” value in series [2] is recorded as 15.47 ± 2.88 ^a ng/g. For the same compound, in series [3], the “Plaque area/total aorta area (%)” value is recorded as 9.54 ± 2.65 ^a %. In series [4] (dose 10 μmol/L), the “Foam cell formation (%)” value is listed as 79 ± 18 ^a %. Further, in series [4] (dose 30 μmol/L), the “Foam cell formation (%)” value is given as 66 ± 16 ^a %. Further, in series [5], the HDL-C is 4.68 ± 0.67 ^a mmol/L and the LDL-C is 5.65 ± 1.04 ^a mmol/L.
Regarding `CCOC(=O)CCNCCC[C@](C)(OC(C)=O)C1CC[C@]2(C)[C@@H]1C(OC(C)=O)CC1[C@@]3(C)CC[C@H](OC(C)=O)C(C)(C)C3CC[C@]12C` (stereo partly shown) [Compound 25], the “Cell Survival Rate” value in series [1] is on record as 0.98 ± 0.07. The “TNF-α level (ng/g)” value in series [2] is reported as 11.65 ± 5.45 ^a ng/g. Also, in series [3], the “Plaque area/total aorta area (%)” value is on record as 8.33 ± 2.44 ^a %. Also, the “Foam cell formation (%)” value in series [4] (dose 10 μmol/L) is given as 62 ± 18 ^a %. The “Foam cell formation (%)” value in series [4] (dose 30 μmol/L) is recorded as 44 ± 15 ^a %. In addition, in series [5], the HDL-C was 5.14 ± 0.87 ^a mmol/L and the LDL-C is recorded as 4.82 ± 1.54 ^a mmol/L.
In the case of `CCOC(=O)C(NCCCCC[C@](C)(OC(C)=O)C1CC[C@]2(C)[C@@H]1C(OC(C)=O)CC1[C@@]3(C)CC[C@H](OC(C)=O)C(C)(C)C3CC[C@]12C)C(C)OCC` (stereo partly shown) [Compound 26], the “Cell Survival Rate” value in series [1] turned out to be 0.94 ± 0.05. Besides, the “TNF-α level (ng/g)” value in series [2] is 16.02 ± 3.11 ^a ng/g. Also, in series [3], the “Plaque area/total aorta area (%)” value is 9.78 ± 3.17 ^a %. In addition, in series [4] (dose 10 μmol/L), the “Foam cell formation (%)” value was 83 ± 21%. In series [4] (dose 30 μmol/L), the “Foam cell formation (%)” value was 72 ± 18 ^a %. Further, in series [5], the HDL-C is recorded as 4.45 ± 0.62 ^a mmol/L and the LDL-C is listed as 6.28 ± 0.84 mmol/L.
For the compound `COC(=O)[C@H](Cc1ccccc1)NCCC[C@](C)(OC(C)=O)C1CC[C@]2(C)[C@@H]1C(OC(C)=O)CC1[C@@]3(C)CC[C@H](OC(C)=O)C(C)(C)C3CC[C@]12C` (stereo partly shown) [Compound 27], the “Cell Survival Rate” value in series [1] is 0.87 ± 0.04. The “TNF-α level (ng/g)” value in series [2] is 17.95 ± 2.15 ^a ng/g. Besides, the “Plaque area/total aorta area (%)” value in series [3] is 10.65 ± 3.82 ^a %. Moreover, the results for the “Foam cell formation (%)” value in series [4] (dose 10 μmol/L) and in series [4] (dose 30 μmol/L) were 76 ± 12 ^a % and 65 ± 18 ^a %, respectively. Further, the HDL-C in series [5] is given as 4.37 ± 0.56 ^a mmol/L. In series [5], the LDL-C is listed as 5.55 ± 1.06 ^a mmol/L.
Take `COC(=O)[C@@H](Cc1ccc(O)cc1)NCCC[C@](C)(OC(C)=O)C1CC[C@]2(C)[C@@H]1C(OC(C)=O)CC1[C@@]3(C)CC[C@H](OC(C)=O)C(C)(C)C3CC[C@]12C` (stereo partly shown) [Compound 28]: the “Cell Survival Rate” value in series [1] turned out to be 0.89 ± 0.04. Moreover, the “TNF-α level (ng/g)” value in series [2] was 11.84 ± 2.91 ^a ng/g. Moreover, the “Plaque area/total aorta area (%)” value in series [3] is 8.18 ± 2.89 ^a %. In addition, the “Foam cell formation (%)” value in series [4] (dose 10 μmol/L) is recorded as 63 ± 11 ^a %. The “Foam cell formation (%)” value in series [4] (dose 30 μmol/L) is on record as 45 ± 16 ^a %. Besides, in series [5], the HDL-C is reported as 5.55 ± 0.63 ^a mmol/L and the LDL-C was 4.59 ± 1.62 ^a mmol/L.
For `COC(=O)[C@H](Cc1c[nH]cn1)NCCC[C@](C)(OC(C)=O)C1CC[C@]2(C)[C@@H]1C(OC(C)=O)CC1[C@@]3(C)CC[C@H](OC(C)=O)C(C)(C)C3CC[C@]12C` (stereo partly shown) [Compound 29], in series [1], the “Cell Survival Rate” value turned out to be 1.00 ± 0.16. Also, in series [2], the “TNF-α level (ng/g)” value is given as 14.93 ± 3.67 ^a ng/g. The “Plaque area/total aorta area (%)” value in series [3] is recorded as 9.67 ± 2.51 ^a %. The “Foam cell formation (%)” value in series [4] (dose 10 μmol/L) is listed as 85 ± 10%; in series [4] (dose 30 μmol/L), 72 ± 18 ^a %. Further, the HDL-C in series [5] is 4.10 ± 0.78 ^a mmol/L. This compound yielded an LDL-C in series [5] of 6.27 ± 1.59 mmol/L.
In the case of `COC(=O)[C@H](Cc1c[nH]c2ccccc12)NCCC[C@](C)(OC(C)=O)C1CC[C@]2(C)[C@@H]1C(OC(C)=O)CC1[C@@]3(C)CC[C@H](OC(C)=O)C(C)(C)C3CC[C@]12C` (stereo partly shown) [Compound 30], the “Cell Survival Rate” value in series [1] came out at 0.95 ± 0.09. In addition, the “TNF-α level (ng/g)” value in series [2] is reported as 16.11 ± 4.19 ^a ng/g. Also, the “Plaque area/total aorta area (%)” value in series [3] is listed as 9.99 ± 3.68 ^a %. In addition, the “Foam cell formation (%)” value in series [4] (dose 10 μmol/L) is on record as 78 ± 12 ^a %. The “Foam cell formation (%)” value in series [4] (dose 30 μmol/L) is reported as 64 ± 13 ^a %. In series [5], the HDL-C is listed as 4.42 ± 0.57 ^a mmol/L and the LDL-C is on record as 6.37 ± 0.75 mmol/L.
